# Data taken from ChEMBL document CHEMBL3870303, “Substituted conformationally restricted guanidine derivatives: Probing the α2-adrenoceptors' binding pocket” (Eur J Med Chem, 2016).
# Activity calls are given as the source filed them. No cut-off for these calls is given here.
# Target: Adrenergic receptor alpha-2 (Homo sapiens) (UniProt P08913+P18825+P18089)
# Assay: Antagonist activity at alpha-2 adrenergic receptor in human brain prefrontal cortex neural membranes assessed as inhibition of [35S]GTPgammaS binding after 120 mins by liquid scintillation counting
# Type: functional, tissue-based
row,SMILES,inhibition
1,c1ccc(CNC2=NCc3cccnc3N2Cc2ccc3c(c2)OCO3)cc1,Active
2,c1ccc2c(c1)CCN=C(NCc1ccc3c(c1)OCO3)N2,Active

# Target: T1, Adrenergic receptor alpha-2 (Homo sapiens, UniProt P08913+P18825+P18089)
# T1 sequence (P08913 whole entry): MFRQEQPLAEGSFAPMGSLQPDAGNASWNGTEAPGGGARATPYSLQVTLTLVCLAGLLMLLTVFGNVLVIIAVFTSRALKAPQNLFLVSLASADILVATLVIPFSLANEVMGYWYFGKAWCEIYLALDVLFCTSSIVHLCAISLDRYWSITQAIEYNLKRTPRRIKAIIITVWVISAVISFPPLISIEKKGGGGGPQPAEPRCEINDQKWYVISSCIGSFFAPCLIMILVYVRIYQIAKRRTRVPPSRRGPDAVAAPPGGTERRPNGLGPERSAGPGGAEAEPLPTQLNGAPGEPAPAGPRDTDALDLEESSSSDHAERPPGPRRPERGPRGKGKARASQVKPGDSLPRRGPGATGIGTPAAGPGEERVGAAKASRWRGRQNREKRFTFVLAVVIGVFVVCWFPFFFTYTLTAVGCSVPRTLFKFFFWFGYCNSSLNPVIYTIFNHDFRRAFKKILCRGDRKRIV
# T1 sequence (P18825 whole entry): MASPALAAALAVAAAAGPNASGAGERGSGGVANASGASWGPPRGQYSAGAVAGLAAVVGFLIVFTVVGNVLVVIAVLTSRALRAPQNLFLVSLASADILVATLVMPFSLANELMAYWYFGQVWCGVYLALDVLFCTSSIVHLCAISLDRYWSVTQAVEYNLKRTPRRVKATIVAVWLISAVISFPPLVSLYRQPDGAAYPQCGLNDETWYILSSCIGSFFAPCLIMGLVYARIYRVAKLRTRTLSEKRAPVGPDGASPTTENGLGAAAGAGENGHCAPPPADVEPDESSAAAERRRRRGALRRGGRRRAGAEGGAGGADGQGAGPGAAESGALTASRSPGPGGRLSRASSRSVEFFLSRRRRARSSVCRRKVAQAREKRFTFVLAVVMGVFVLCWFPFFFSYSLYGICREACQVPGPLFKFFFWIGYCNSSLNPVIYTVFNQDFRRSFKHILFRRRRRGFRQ
# T1 sequence (P18089 whole entry): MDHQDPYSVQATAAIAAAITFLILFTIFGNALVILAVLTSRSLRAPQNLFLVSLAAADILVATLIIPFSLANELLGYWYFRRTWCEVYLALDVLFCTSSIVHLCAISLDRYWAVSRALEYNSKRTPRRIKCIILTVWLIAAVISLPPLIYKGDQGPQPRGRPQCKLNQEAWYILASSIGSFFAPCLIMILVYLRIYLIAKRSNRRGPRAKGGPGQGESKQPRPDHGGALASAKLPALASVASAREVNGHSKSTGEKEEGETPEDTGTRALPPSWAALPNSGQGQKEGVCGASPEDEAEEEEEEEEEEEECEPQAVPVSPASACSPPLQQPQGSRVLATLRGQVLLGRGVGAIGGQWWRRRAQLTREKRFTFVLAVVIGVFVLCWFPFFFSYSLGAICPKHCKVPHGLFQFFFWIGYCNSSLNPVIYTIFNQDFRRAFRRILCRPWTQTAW
# Assay: Displacement of [3H]RX821002 from alpha-2 adrenergic receptor in human brain pre-frontal cortex neural membranes after 30 mins by liquid scintillation counting method
row,SMILES,pKi
1,c1ccc(CNC2=NCc3cccnc3N2Cc2ccc3c(c2)OCO3)cc1,5.15
2,OCCNC1=NCCc2ccccc2N1,5.81
3,CCCN1C(NCc2ccccc2)=NCc2ccccc21,5.29
4,CN(C)c1ccc2c(c1)CCN=C(NCc1ccco1)N2,5.36
5,c1ccc(CNC2=NCc3ccccc3N2Cc2ccc3c(c2)OCO3)cc1,6.55
6,CN(C)c1ccc2c(c1)CCN=C(NCCO)N2,4.99
7,CCCN1C(N)=NCc2ccccc21,5.11
8,c1ccc2c(c1)CCN=C(NCc1ccc3c(c1)OCO3)N2,6.64
9,c1ccc(CNC2=NCc3ccccc3N2c2ccccc2)cc1,4.92
10,CCCN1C(N)=NCc2cccnc21,4.99
11,OCCN1C(NCc2ccccc2)=NCc2cccnc21,5.07
12,CCCN1C(NCc2ccccc2)=NCc2cccnc21,5.05
13,CN(C)c1ccc2c(c1)CCN=C(NCc1ccc3c(c1)OCO3)N2,6.14
14,NC1=NCc2ccccc2N1c1ccccc1,5.85
15,OCCNC1=NCCc2cc3c(cc2N1)OCO3,5.5
16,COC1(C2=NCCN2)COc2ccccc2O1 (stereo not drawn),8.85
